We go through three compounds from patent US10314883B2, “Compositions and methods for regulating blood pressure” (University of Virginia Patent Foundation, priority 2015, dated 2019).

One test addresses T1, Panx1 (Mus musculus, UniProt Q9JIP4).
T1 construct: we progressively substituted amino acids in this region of full-length Panx1 with alanine residues; HA; expressed in transfected cells; host or cells: HEK293T cells, transient co-transfection with alpha1DAR plasmid (Origene, NM_013460, C-terminal Myc-DDK)
As to the kind of experiment: Whole-cell patch clamp of CBX-sensitive Panx1 current in HEK293 cells cotransfected with mPanx1 and α1DAR. The class given is cell-based. To be noted: phenylephrine 20 μmol/L; for effect on phenylephrine-induced Panx1 current: cells pre-incubated with peptide 40-60 minutes. Here is the method:
Human Embryonic Kidney (HEK) 293T cells were cultured as previously described, and were used until passage 20. For ATP measurements, 50,000 cells/well were seeded in 24 well plates pre-coated with 0.01% poly-L-lysine, and transfected using Lipofectamine 2000 (Invitrogen) according to the manufacturer protocol. Briefly, 0.4 μg of α1DAR and 0.4 μg of Panx1^WT, Panx1^KYP>AAA, Panx1^IVEQ>AAA or Panx1^YLK>AAA plasmids were added to each well along with 2 μl of Lipofectamine 2000. For electrophysiology measurements, 4 μg of α1DAR plasmid, 2 μg of Panx1^WT, Panx1^KYP>AAA, Panx1^IVEQ>AAA or Panx1^YLK>AAA plasmids, and 0.5 μg of GFP plasmid were mixed with 10 μl Lipofectamine 2000 and added to a well of 6-well plate seeded with ˜70% confluent HEK cells. Cells were split the next morning and plated onto a glass coverslip for recording. ATP measurements and whole-cell recordings were performed 24 hours after transfection.
Whole-cell recordings were obtained at room temperature from transiently transfected HEK293T cells using Axopatch 200B amplifier (Molecular Devices) in a bath solution composed of 140 mmol/L NaCl, 3 mmol/L KCl, 2 mmol/L MgCl2, 2 mmol/L CaCl2, 10 mmol/L HEPES and 10 mmol/L glucose (pH 7.3). Patch pipettes (3-5 MΩ) were filled with a Cs-/TEA-based internal solution, as previously described. Ramp voltage commands with 7-s intervals were applied using pCLAMP software and Digidata1322A digitizer (Molecular Devices). Peak whole-cell currents were determined at +80 mV and normalized to cell capacitance. Current mediated by Panx1 was defined by its sensitivity to carbenoxolone (CBX). In this system, no CBX-sensitive current is observed in HEK293T cells without Panx1. Basal current was recorded for approximately two minutes and PE (20 μmol/L) was applied to the bath solution, which was followed by addition of CBX (50 μmol/L). When indicated, cells were pre-incubated with bath solution containing IL2 peptide or its scrambled version at room temperature for 40-60 minutes prior to the experiment. The effect of PE on Panx1 current was quantified relative to CBX-sensitive basal current, and data was expressed as percent increase in CBX-sensitive current. All experiments were performed on 8 to 22 cells for each conditions tested. Data were analyzed using a Kruskall Wallis test (non-parametric one-way ANOVA) followed by Dunn's post-hoc test.
To test if α1AR stimulation triggered opening of the Panx1 channel and the importance of the region represented by the IL2 peptide, we cotransfected mPanx1 and α1DAR into HEK293 cells and monitored whole-cell currents by patch clamp electrophysiology.
Background: Patch clamp records ionic current or voltage across a cell membrane.

Test [1] relates to thoracodorsal arteries (TDA). As to the kind of experiment: ATP release from intact TDA (luciferin:luciferase). Format: cell-based, mouse. To be noted: for effect on phenylephrine-induced ATP release from intact TDAs: phenylephrine 100 μmol/L, ^10Panx1 300 μmol/L, peptides 3 μmol/L. Here is the method: Mouse TDAs of equal length were isolated and washed thoroughly to eliminate red blood cells. Vessels were placed in a well of a 96-well plate containing Krebs-HEPES solution supplemented with 1% BSA at 37° C. for 30 minutes to allow for degradation of any ATP released as a result of mechanical stimulation during manipulation of the vessel. For measurements performed on HEK cells: 24 hours after transfection, cells cultured in 24-well plates were cautiously washed twice with warm Krebs-HEPES-BSA and 300 μl of Krebs-HEPES-BSA was added to each well after the last wash as previously described. The plate was then kept in the incubator at 37° C. with 5% CO2 for 30 minutes to allow for degradation of ATP eventually released during the washes.
The ectonucleotidase inhibitor ARL67156 (300 μmol/L) was applied to each well. When indicated, ^10Panx1 (300 μmol/L) or the peptides analog to intracellular regions of Panx1 (3 μmol/L) were added along with the ARL67156. After a 30 minute incubation at 37° C. with the inhibitor(s), phenylephrine (100 μmol/L) or equivalent volume of Krebs-HEPES-BSA was added and the plate was kept at 37° C. After five minutes of phenylephrine stimulation, the media surrounding the TDA or the cells was transferred to an Eppendorf tube and centrifuged for five minutes at 5,000×g to eliminate eventual cell debris. Fifty microliters of the supernatant was transferred to a white-wall 96 well plate and placed in a FluoStar Omega luminometer. The ATP concentration was measured by adding 50 μL of luciferin:luciferase reagent (ATP bioluminescence assay kit HSII; Roche), which was injected into each well and the luminescence was immediately recorded. Data are expressed as a percent increase in ATP concentration compared to unstimulated condition. Each stimulated condition was compared to unstimulated condition performed on the same day, and all experiments were performed on at least 15 wells of HEK cells or three TDAs. Data were analyzed using a Kruskall Wallis test (non-parametric one-way ANOVA) followed by Dunn's post-hoc test.
To determine if the TDA response involved release of ATP, we dissected TDAs from C57Bl/6 mice and measured the accumulation of extracellular ATP in response to various agonists in the medium (FIG. 1E, inset). The TDAs were placed in a well of a 96 well plate in Krebs-HEPES solution and treated with the ectonucleotidase inhibitor ARL67156 for 30 minutes. Next, arteries were treated with a contractile agonist for five minutes and the amount of ATP in the media surrounding the vessel was determined using the ATP bioluminescence assay kit HSII (Roche).

T1 sequence (Q9JIP4 whole entry): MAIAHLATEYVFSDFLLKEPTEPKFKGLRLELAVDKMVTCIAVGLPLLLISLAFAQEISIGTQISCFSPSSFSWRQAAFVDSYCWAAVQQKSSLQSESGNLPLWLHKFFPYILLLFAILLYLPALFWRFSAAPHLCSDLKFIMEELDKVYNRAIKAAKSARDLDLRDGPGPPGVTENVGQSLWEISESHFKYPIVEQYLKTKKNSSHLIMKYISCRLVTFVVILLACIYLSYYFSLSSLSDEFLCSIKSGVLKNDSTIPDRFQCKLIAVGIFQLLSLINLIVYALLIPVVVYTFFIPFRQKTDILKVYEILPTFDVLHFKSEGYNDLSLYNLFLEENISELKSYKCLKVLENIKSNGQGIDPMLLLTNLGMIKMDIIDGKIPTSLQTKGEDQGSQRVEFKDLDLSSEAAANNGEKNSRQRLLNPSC

On to `CNC[C@H](O)c1cccc(O)c1` [Phenylephrine, phenylephrine], for which the “effect of agonist on Panx1 whole-cell current” value on Panx1 (cells expressing both mPanx1 and α1DAR) is given as “increased this current”. The “ATP release from intact TDAs in response to agonist” value in test [1] (five minutes of agonist, ARL67156 300 μmol/L) was “stimulated ATP release”.
With KYPIVEQYLKYGRKKQRRR [IL2], the “effect on phenylephrine-induced Panx1 current” value at Panx1 is reported as “significantly decreased”. Moreover, the “effect on phenylephrine-induced ATP release from intact TDAs” value in test [1] is recorded as “significantly decreased”.
Regarding “scrambled intracellular loop 2 IYLYVEQKPY (SEQ ID NO: 7) linked with a TAT sequence [Scrambled IL2]”, on Panx1, the “effect on phenylephrine-induced Panx1 current” value was “no effect”. Besides, in test [1], the “effect on phenylephrine-induced ATP release from intact TDAs” value was “no effect”.
